Experimental data from article PMC9652379, “Safety evaluations of a synthetic antimicrobial peptide administered intravenously in rats and dogs” (Scientific Reports, 2022).
Positions of bridges follow the written chain, without caps; N, C: chain ends. Non-standard residues stand in square brackets, D forms with d. Residues, ends and D or L forms follow the SMILES beside them. Chains are numbered I, II in the order given. βAla = NCCC(=O)O

Legend:
Sprague Dawley rats = conditions: rat, in vivo, iv, 15 mg/kg/day
Method: Necroscopy and histopathological examinations were performed at the end of treatment and at the end of the recovery period. Macroscopic changes were recorded in the kidneys (pale coloration and a reddened medullary area in almost all males and females from groups on 9 and 15 mg/kg/day) and bladder (distended in a few males of all treated groups). These findings were also recorded at the end of the recovery period affecting all animals dose at 15 mg/kg/day (pale coloration of the kidneys) or one male (distended urinary bladder). […] At the end of the recovery period the mean weight of the spleen (both sexes) and the mean weight of the kidneys and ovaries (females) from animals treated at 15 mg/kg/day were still higher with respect to control group. […] For 15 mg/kg/day group, the changes observed in the kidneys, bone marrow, uterine cervix and vagina were not reversible (see Supplementary Material for images and number of animals affected by these irreversible abnormalities), while the rest of the findings were fully (femorotibial growth plate and duodenum) or partially recovered (heart, ovaries and mammary glands) after 2 weeks of recovery period.
All animals underwent necropsy. Descriptions of all macroscopic abnormalities were recorded. […]

[1] = Toxicokinetics in rats, 4 weeks daily iv slow bolus; type: in vivo, rat; conditions: for AUC(0-t) / Cmax / tmax: iv
Method: SET-M33 was administered intravenously as a slow bolus to Sprague Dawley rats once daily for 4 weeks at 0 (vehicle only), 5, 9 and 15 mg/kg/day (control group 3 animals/sex, treated groups 6 animals/sex). Blood samples were taken on day 1 and day 28. […] Mean plasma SET-M33 exposure increased in parallel with dose in males and females. […] Mean time to maximum plasma SET-M33 concentration (tmax) was 5 min post-dose for both times and sexes as expected for intravenous bolus administration. […] On day 28, female intermediate dose AUC0-t ratio was 1.7 times the theoretical ratio.
Blood samples were drawn from the retro-orbital sinus under light isoflurane anaesthesia for determination of plasma SET-M33 levels. The samples were taken on days 1 and 28 of treatment at the following times: control group: pre-dose and 30 min; 5, 9 and 15 mg/kg/day-group: pre-dose, 5, 15, 30, 60 min and 24 h after administration. Blood samples were collected into polypropylene test tubes containing lithium heparin anticoagulant and kept at room temperature for no longer than 60 min until centrifuging (1600 g for 10 min at 2–8 °C). The plasma obtained from each sample was transferred to a fresh polypropylene test tubes, immediately frozen in dry ice and stored at − 20 °C ± 5. Plasma concentrations of SET-M33 were measured by a previously validated LC–MS/MS method. Toxicokinetic parameters were determined for mean plasma concentrations at each dose level and time point, according to the validated method and with WinNonlin software, version 6.3, in the Phoenix Suite version 1.3 (Pharsight Corporation, Mountain View, CA, USA).

[2] = Toxicokinetics in dogs, 4 weeks daily 1-h iv infusion; type: in vivo; conditions: dog; for Cmax / tmax / AUC0-24 / AUC(0-t): iv
Method: Plasma concentrations and the main toxicokinetic parameters of SET-M33 in plasma samples were determined in beagle dogs after intravenous administration of SET-M33 by daily 1-h-infusion at 0.5, 1.5 or 4.0 mg/kg/day or only vehicle for 4 weeks (5 animals/group/sex). Blood samples were taken on day 1 and day 28.
The time when the maximum plasma concentration occurred (Tmax) was at the end of the 1-h infusion in all animals, as expected for this route of administration. Plasma concentrations of SET-M33 at 24 h post-dose were below the limit of quantification (< 20.0 ng/ml) in all animals at all dose levels on day 1 and day 28 (not shown).
On days 1 and 28, blood samples were obtained for toxicokinetic determinations from all animals at the following times: Day 1 at the end of infusion and 5, 10, 15, 30, 60 and 180 min later; […] and 24 h ± 30 min post-dose; Day 28 at the end of infusion and 5, 10, 15, 30, 60 and 180 min later; […] and 24 h ± 30 min post-dose. Blood samples were collected into lithium heparin test tubes and kept in an ice bath until centrifuging (1600 g for 10 min at 2–8 °C). The plasma obtained from each sample was transferred to a fresh polypropylenes test tubes, immediately frozen in dry ice and stored at − 20 °C ± 5. Bioanalytical samples were analysed by a validated liquid chromatographic mass spectrometric assay. Pharmacokinetic parameters were calculated using the computer program Phoenix WinNonlin version 6.3 (Certara USA, Inc).

[3] = female, Sprague Dawley, rat, in vivo, 5 mg/kg/day
[4] = male, Sprague Dawley, rat, in vivo, 5 mg/kg/day
[5] = male, Sprague Dawley, rat, in vivo, 9 mg/kg/day
[6] = male, Sprague Dawley, rat, in vivo, 15 mg/kg/day
[7] = female, beagle, in vivo, 4 mg/kg/day
[8] = male, beagle, in vivo, 0.5 mg/kg/day
[9] = male, beagle, in vivo, 4 mg/kg/day

SMILES: CC[C@H](C)[C@H](NC(=O)[C@H](CCCCN)NC(=O)[C@@H](N)CCCCN)C(=O)N[C@@H](CCCNC(=N)N)C(=O)N[C@H](C(=O)N[C@@H](CCCNC(=N)N)C(=O)N[C@@H](CC(C)C)C(=O)N[C@@H](CO)C(=O)N[C@@H](C)C(=O)NCCCC[C@H](NC(=O)[C@H](C)NC(=O)[C@H](CO)NC(=O)[C@H](CC(C)C)NC(=O)[C@H](CCCNC(=N)N)NC(=O)[C@@H](NC(=O)[C@H](CCCNC(=N)N)NC(=O)[C@@H](NC(=O)[C@H](CCCCN)NC(=O)[C@@H](N)CCCCN)[C@@H](C)CC)C(C)C)C(=O)NCCCC[C@H](NC(=O)[C@H](CCCCNC(=O)[C@H](C)NC(=O)[C@H](CO)NC(=O)[C@H](CC(C)C)NC(=O)[C@H](CCCNC(=N)N)NC(=O)[C@@H](NC(=O)[C@H](CCCNC(=N)N)NC(=O)[C@@H](NC(=O)[C@H](CCCCN)NC(=O)[C@@H](N)CCCCN)[C@@H](C)CC)C(C)C)NC(=O)[C@H](C)NC(=O)[C@H](CO)NC(=O)[C@H](CC(C)C)NC(=O)[C@H](CCCNC(=N)N)NC(=O)[C@@H](NC(=O)[C@H](CCCNC(=N)N)NC(=O)[C@@H](NC(=O)[C@H](CCCCN)NC(=O)[C@@H](N)CCCCN)[C@@H](C)CC)C(C)C)C(=O)NCCC(=O)O)C(C)C [SET-M33] (I: H-KKIRVRLSAKK[βAla]-OH / II: H-KKIRVRLSAK / III: H-KKIRVRLSA / IV: H-KKIRVRLSA; amide I:10-IV:C, I:11-II:C, II:10-III:C (inferred); N-terminus and C-terminus assumed)
- cervical and vaginal epithelial atrophy, incidence (Sprague Dawley rats): 1 out of 5
- AUC(0-t) [1, 3]: 1218 ng·h/mL
- Cmax [1, 3]: 4103 ng/mL
- AUC(0-t) ([1]; female, Sprague Dawley, rat, in vivo, 5 mg/kg/day, AUC0-t): 663 ng·h/mL
- Cmax ([1]; female, Sprague Dawley, rat, in vivo, 5 mg/kg/day, Cmax): 2110 ng/mL
- AUC(0-t) [1, 4]: 938 ng·h/mL
- Cmax [1, 4]: 3017 ng/mL
- tmax [1, 4]: 5 min
- AUC(0-t) ([1]; male, Sprague Dawley, rat, in vivo, 5 mg/kg/day, AUC0-t): 692 ng·h/mL
- Cmax ([1]; male, Sprague Dawley, rat, in vivo, 5 mg/kg/day, Cmax): 2230 ng/mL
- AUC(0-t) [1, 5]: 1819 ng·h/mL
- Cmax [1, 5]: 5890 ng/mL
- tmax [1, 5]: 5 min
- AUC(0-t) ([1]; male, Sprague Dawley, rat, in vivo, 9 mg/kg/day, AUC0-t): 1430 ng·h/mL
- Cmax ([1]; male, Sprague Dawley, rat, in vivo, 9 mg/kg/day, Cmax): 4560 ng/mL
- AUC(0-t) [1, 6]: 2734 ng·h/mL
- Cmax [1, 6]: 8170 ng/mL
- tmax [1, 6]: 5 min
- AUC(0-t) ([1]; male, Sprague Dawley, rat, in vivo, 15 mg/kg/day, AUC0-t): 2240 ng·h/mL
- Cmax ([1]; male, Sprague Dawley, rat, in vivo, 15 mg/kg/day, Cmax): 6040 ng/mL
- mean tmax ([1]; rat, in vivo): 5 min
- quantifiable plasma concentrations until, post-dose ([1]; rat, in vivo): 1 h
- intermediate dose AUC0-t ratio relative to the theoretical ratio ([1]; rat, in vivo, 9 mg/kg/day): 1.7 times
- tmax ([1]; rat, in vivo, 5 mg/kg/day): 5 min
- tmax ([1]; rat, in vivo, 9 mg/kg/day): 5 min
- tmax ([1]; rat, in vivo, 15 mg/kg/day): 5 min
- mean AUC0-t ratio, low vs. intermediate dose (theoretical ratio 1.8) ([1]; rats, 5 vs 9 mg/kg/day, day 1): 2
- mean Cmax ratio, low vs. intermediate dose (theoretical ratio 1.8) ([1]; rats, 5 vs 9 mg/kg/day, day 1): 1.7–2
- mean AUC0-t ratio, low vs. high dose (theoretical ratio 3) ([1]; rats, 5 vs 15 mg/kg/day, day 1): 2.9–3.2
- mean Cmax ratio, low vs. high dose (theoretical ratio 3) ([1]; rats, 5 vs 15 mg/kg/day, day 1): 2.7
- Cmax and AUC0-24 relative to values predicted for a linear relationship ([2]; in vivo, 4 mg/kg/day): approximately 2.1 times
- Cmax ([2]; in vivo, 0.5 mg/kg/day): 82.8 ± 19.1 ng/mL
- tmax ([2]; in vivo, 0.5 mg/kg/day): EOI
- tmax ([2]; in vivo, 1.5 mg/kg/day): EOI
- tmax ([2]; in vivo, 4 mg/kg/day): EOI
- AUC0-24 ([2]; female, beagle, in vivo, 0.5 mg/kg/day): 45.6 ± 10.4 ng·h/mL
- AUC(0-t) ([2]; female, beagle, in vivo, 0.5 mg/kg/day, AUC0-24): 76.5 ± 25.2 ng·h/mL
- Cmax ([2]; female, beagle, in vivo, 0.5 mg/kg/day, Cmax): 125 ± 35 ng/mL
- Cmax ([2]; female, beagle, in vivo, 1.5 mg/kg/day): 345 ± 87 ng/mL
- Cmax ([2]; female, beagle, in vivo, 1.5 mg/kg/day, Cmax): 645 ± 121 ng/mL
- AUC0-24 [2, 7]: 991 ± 161 ng·h/mL
- Cmax [2, 7]: 1360 ± 220 ng/mL
- AUC(0-t) ([2]; female, beagle, in vivo, 4 mg/kg/day, AUC0-24): 1550 ± 450 ng·h/mL
- Cmax ([2]; female, beagle, in vivo, 4 mg/kg/day, Cmax): 1930 ± 350 ng/mL
- AUC0-24 [2, 8]: 42.2 ± 13.3 ng·h/mL
- Cmax [2, 8]: 82.4 ± 22.4 ng/mL
- AUC(0-t) ([2]; male, beagle, in vivo, 0.5 mg/kg/day, AUC0-24): 83 ± 9.8 ng·h/mL
- Cmax ([2]; male, beagle, in vivo, 0.5 mg/kg/day, Cmax): 149 ± 16 ng/mL
- Cmax ([2]; male, beagle, in vivo, 1.5 mg/kg/day): 274 ± 110 ng/mL
- AUC(0-t) ([2]; male, beagle, in vivo, 1.5 mg/kg/day, AUC0-24): 157 ± 60 ng·h/mL
- Cmax ([2]; male, beagle, in vivo, 1.5 mg/kg/day, Cmax): 470 ± 218 ng/mL
- AUC0-24 [2, 9]: 569 ± 99 ng·h/mL
- Cmax [2, 9]: 816 ± 188 ng/mL
- AUC(0-t) ([2]; male, beagle, in vivo, 4 mg/kg/day, AUC0-24): 1050 ± 150 ng·h/mL
- Cmax ([2]; male, beagle, in vivo, 4 mg/kg/day, Cmax): 1490 ± 440 ng/mL
- AUC(0-t) ([2]; male, beagle, plasma, 1.5 mg/kg/day, male dogs, 1.5 mg/kg/day 1-h iv infusion, day 28, plasma, LC-MS, mean ± SD, n=5, read-out: AUC0-24): 416 ± 209 ng·h/mL
